Results on one substance are retold here after patent US11229680B2, “Autophagy inhibitors” (The Hong Kong University of Science and Technology, priority 2017, dated 2022).

Assay [1] deals with all members of the Atg8 family. Description: ITC binding to all members of the Atg8 family. More on the design: species or system human. The source says:
The 440 kD AnkB and 480 kD AnkG both contain a giant exon encoding several thousand amino acid residues, though the homology between the two giant exon coding sequences is very limited. The 440 kD AnkB is also a neuronal specific isoform, and is mainly expressed in unmyelinated/premyelinated axons.
Thus, we will not describe the overall structures of the two complexes any further, except to note that the AnkB LIR also contains a well-defined C-helix extension following the LIR core motif.

The next assay deals with LGG-1 (Caenorhabditis elegans, UniProt Q09490). Description: ITC binding to purified LGG-1. Also on record: species or system C. elegans. The text has this:
(§1) C. elegans provides an ideal platform to study autophagy and especially to investigate roles of different members of Atg8 in autophagy, because worms contain both GABARAP and LC3 subfamily Atg8s and yet simple enough with one gene for each subfamily (worm lgg-1 and lgg-2 are […] of GABARAP and LC3, respectively). It has also been shown earlier on that lgg-1 and lgg-2 act non-redundantly in autophagy (Wu et al., 2015). Prior to performing autophagy assays in worms, we measured the bindings of various AnkB/G LIR peptides to purified LGG-1 and LGG-2 using the same method as we have described for FIGS. 1&3.

A further assay concerns the target T1, LGG-2 (Caenorhabditis elegans, UniProt Q23536).
T1 sequence (Q23536 1-130): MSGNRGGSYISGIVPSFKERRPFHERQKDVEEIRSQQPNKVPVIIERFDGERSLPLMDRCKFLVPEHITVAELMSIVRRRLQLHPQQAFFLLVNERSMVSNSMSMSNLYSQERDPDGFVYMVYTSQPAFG
Put plainly: ITC binding to purified LGG-2. Conditions: purified LGG-2. More on the design: species or system C. elegans.
Source text: as §1

Assay [2] relates to LC3-positive puncta in COS7 cells. Put plainly: LC3-positive puncta in starved COS7 cells. The format is cell-based. Conditions: COS7 cells over-expressing mCherry-tagged peptide, nutrients deprivation. The text has this:
(§2) We used the well-established cultured COS7 cells for assessing autophagy inhibitions by the AnkB/G LIR peptides over-expressed in the cells. We quantified the numbers of endogenous LC3- or GABARAP-positive puncta, which represent LC3 or GABARAP-containing autophagic structures, as readouts to quantify autophagy inhibitions (Klionsky et al., 2016; Mizushima et al., 2010). After nutrients deprivation, obvious accumulations of LC3- or GABARAP-positive puncta could be observed in cells over-expressing mCherry only, indicating induction of autophagy by starvation (FIG. 6C6&E6). […] In contrast, expression of the mCherry-AnkB WR peptide had no impact on the LC3- or GABARAP-puncta numbers (i.e. with the same puncta numbers as expressing the mCherry vector control; FIG. 6C-F).

The test system of assay [3] is GABARAP-positive puncta in COS7 cells. Put plainly: GABARAP-positive puncta in starved COS7 cells. The format is cell-based. The settings on record: COS7 cells over-expressing mCherry-tagged peptide, nutrients deprivation.
Source text: as §2

Assay [4] relates to p62-positive puncta in COS7 cells. Description: p62-positive puncta in starved COS7 cells. The format is cell-based. Conditions: COS7 cells expressing mCherry-tagged peptide, starvation. The source says:
We further quantified the level of p62, one of the best studied selective autophagy substrates, to monitor the autophagic flux in COS7 cells expressing various AnkB/G LIR peptides under the starvation condition (Klionsky et al., 2016; Mizushima et al., 2010). Upon autophagy induction, p62 forms aggregates via its LIR motif-mediated interactions to Atg8s and subsequent incorporation into autophagosomes (Bjorkoy et al., 2005; Pankiv et al., 2007). Only a relatively low and steady level of p62 aggregates is formed if autophagy flux is normal (i.e. p62-positive autophagosomes are steadily cleared by fusing with lysosomes; (Bjorkoy et al., 2005)), and this is indeed the case when cells were expressed with the mCherry vector control (FIG. 7F). […] This is consistent with a previous siRNA-based study showing that knockdown of LC3 but not GABARAP causes p62 accumulation in COS7 cells (Maruyama et al., 2014). Taken together, the above cell-based assays reinforce our earlier conclusion derived from biochemical and structural studies, that the AnkB WT peptide can function as potent autophagy inhibitor by targeting all members of the Atg8 family and the AnkG WT or ER peptides can selectively target the GABARAPs and spare the LC3s.

For a further assay, the system named is SQST-1::GFP. Put plainly: SQST-1::GFP aggregate accumulation in C. elegans expressing the peptides. The format is in vivo. The text has this:
We next determined whether the AnkB WT peptide blocks autophagy in C. elegans. Autophagy is required for degradation of a variety of protein substrates, including the C. elegans p62 homolog SQST-1 during development (Tian et al., 2010). In the wild type animals, SQST-1::GFP is weakly expressed and diffusely localized in the cytoplasm, while numerous SQST-1 aggregates accumulate in autophagy mutants (Tian et al., 2010). The AnkB WT peptide fused with the Cherry reporter (Cherry::AnkB WT) or Cherry::AnkB WR was expressed under the control of the nfya-1 promoter, which is expressed ubiquitously from the embryonic to adult stages. The expression plasmids were injected into animals carrying integrated SQST-1::GFP reporter (bpIs151) and transgenic lines were obtained and analyzed.
Similarly, we also tested the blocking effect of AnkG peptides in C. elegans. […] This observation is somewhat different from that in mammalian heterologous cells. This may be explained by the different roles of the two families in different organisms. In mammal, p62 degradation is dependent on LC3 but not GABARAP (Maruyama et al., 2014), so blocking GABARAP binding has minimal effect on p62 degradation. However, in C. elegans, LGG-1 acts upstream to LGG-2 (Manil-Segalen et al., 2014; Wu et al., 2015), so blocking either of them will lead to defect in SQST-1 degradation.
Although a large collection of autophagy mutants were isolated from genetic screens (Tian et al., 2010), assays to inhibit autophagy activity in a spatiotemporal manner are not available. We investigated whether the AnkB peptide can block autophagy in a tissue- and temporal-specific manner. The AnkB peptide was expressed under the control of tissue-specific promoters, including the promoter of myo-3 for body wall muscle cells, y37A1B.5 for hypodermal cells and vha-6 for intestinal cells. The expression constructs were injected into animals carrying the corresponding tissue-specific SQST-1::GFP expression integrated lines.
We also examined whether the AnkB peptide can impair autophagy in a temporal control manner. The expression of AnkB WT was driven by the promoter of col-19, which is expressed in hypodermal cells from the young adult stage onwards.

The test system of assay [5] is C. elegans. Description: C. elegans hatching and development. The format is in vivo. The settings on record: Pnfya-1::Cherry fusion. The text has this:
Autophagy plays critical roles in various physiological processes occurring during development or in adult C. elegans (Zhang et al., 2015). Fewer autophagy mutants develop into larvae. […] 60.8% embryos expressing the AnkB WT peptide hatched, compared to 96.9% of embryos expressing AnkB WR (FIG. 8G). Autophagy mutants also grow slowly. […] Thus, the AnkB WT peptide blocks autophagy during C. elegans development.

In assay [6] the test system is C. elegans. Description: C. elegans life span. In kind it is in vivo. The text has this: Autophagy is known to regulate the adult worm aging process. […] The autophagy defect caused by AnkB was weaker than that in autophagy mutants.
The subject of assay [7] is GFP-RFP-LC3B puncta in COS7 cells. Put plainly: Autophagosome marker co-localization in COS7 cells co-transfected with GFP-RFP-LC3B. In kind it is cell-based. Conditions: Myc tagged peptide, low expression level. The text has this:
We next tried to explore the potential applications of the Ank-derived peptides as autophagosome markers. The COS7 cells were co-transfected with GFP-RFP-LC3B and Myc tagged AnkB WT or AnkB WR peptides. […] LC3B are mainly localized on the autophagosome as vast majority of the puncta are both green and red (FIG. 11A).

Sequence of LGG-1 (Q09490 1-116 limits assumed): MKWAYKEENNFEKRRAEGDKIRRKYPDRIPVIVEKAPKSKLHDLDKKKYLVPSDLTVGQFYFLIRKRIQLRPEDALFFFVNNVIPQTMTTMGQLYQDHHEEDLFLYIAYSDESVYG

With “AnkB W1592R: AnkB LIR with Trp1592 substituted by Arg; control for functional studies (VEEERVIVSDEEIEEARQKAPLEITEY; AnkB W1592R human recombinant peptide, prepared in the lab)”, the “binding to Atg8 family members (in words)” value in assay [1] was “dramatically decreased”. The “binding to LGG-1 (in words)” value with LGG-1 was “eliminated the bindings”. In addition, in the assay with LGG-2, the “binding to LGG-2 (in words)” value was “eliminated the bindings”. Also, the LC3-positive puncta number entry in [2] is on record as “no impact”. The GABARAP-positive puncta number result in assay [3] is given as “no impact”. Besides, in assay [4], the “p62-positive puncta versus mCherry vector control” value is “neither of the AnkB/G WR peptides could induce p62-positive puncta increase”. Besides, the “SQST-1::GFP aggregates” value with SQST-1::GFP (Cherry fusion, FIG. 8, embryo) is given as “no SQST-1::GFP aggregates”; in the assay on SQST-1::GFP (Cherry fusion, FIG. 8, larvae), “no SQST-1::GFP aggregates”; with SQST-1::GFP (Cherry fusion, nfya-1 promoter (ubiquitous), multiple tissues, embryonic to adult stages), “no SQST-1::GFP aggregates were formed”; in the assay on SQST-1::GFP (mCherry fusion, hypodermal cells, embryo (FIG. 9)), “no SQST-1::GFP aggregates”; in the assay on SQST-1::GFP (mCherry fusion, hypodermis, L4 larvae (FIG. 9)), “no SQST-1::GFP aggregates”; with SQST-1::GFP (myo-3 promoter, muscle cells, L4 larvae), “no SQST-1::GFP aggregates”. The “SQST-1::GFP aggregates” value in the assay with SQST-1::GFP (myo-3 promoter, muscle, embryo) is listed as “no SQST-1::GFP”; with SQST-1::GFP (tissue-specific promoters myo-3, y37A1B.5, vha-6, embryonic to adult stages) it was “no accumulation”; with SQST-1::GFP (vha-6 promoter, intestine cells, embryo), “no SQST-1::GFP aggregates”; with SQST-1::GFP (vha-6 promoter, intestine cells, larvae (FIG. 10S, 10T)) it was “no SQST-1::GFP aggregates”. For the same substance, in the assay on C. elegans [5], the “embryos hatched (hatch rate)” value stood at 96.9%. In addition, the Median lifespan is 18.72 days in the assay on C. elegans [6] (Pmyo-3::ch:: fusion (muscle)), 19.15 days with C. elegans [6] (Pnfya-1::ch:: fusion (ubiquitous)), 18.13 days in the assay with C. elegans [6] (Pvha-6::ch:: fusion (intestine)) and 18.63 days in the assay with C. elegans [6] (Py37a1b.5::ch:: fusion (hypodermal cells)). The “localization relative to GFP-RFP-LC3B dual-color (autophagosome) puncta” value in assay [7] is reported as “diffused in the cells”.
